One experiment has as its system Pityrosporum ovale. Briefly: Antimycotic activity in vitro, series dilution test (MIC). The format is cell-based. The settings on record: Malassezia furfur; Abbe medium, 24-96 hours, 5 × 10^4 germs/ml; read-out: MIC values in γ/ml of nutrient medium, for Pityrosporum ovale. On the procedure:
The in vitro tests were carried out in a series dilution test with germ inocula averaging 5 × 10^4 germs/ml of substrate. The nutrient media used were (c) for Pytrosporum ovale: Abbe medium, and The incubation temperatures were 28° C. for dermatophytes, yeasts and molds and 37° C. for biphase fungi; the incubation time was 24-96 hours.

The test system of a further experiment is penicillium. The description is as above. The format is cell-based. The settings on record: 28° C., 24-96 hours, Sabouraud's milieu d'epreuve, 5 × 10^4 germs/ml, read-out: MIC values in γ/ml of nutrient medium, for penicillium. On the procedure: (§1) The in vitro tests were carried out in a series dilution test with germ inocula averaging 5 × 10^4 germs/ml of substrate. The nutrient media used were
(§2) (a) for dermatophytes and molds Sabouraud's milieu d'epreuve,
(§3) The incubation temperatures were 28° C. for dermatophytes, yeasts and molds and 37° C. for biphase fungi; the incubation time was 24-96 hours.

For a further experiment, the system named is Aspergillus fumigatus. The description is as above. The format is cell-based. The settings on record: read-out: MIC values in γ/ml of nutrient medium, for Aspergillus fumigatus. How it is done:
as §1, §2, §3

Experiment [1] has as its system Trichophyton mentagrophvtes. The experiment is described as above. The experiment is classed as cell-based, Trichophyton mentagrophytes. The settings on record: 28° C., 24-96 hours, Sabouraud's milieu d'epreuve, 5 × 10^4 germs/ml, read-out: MIC values in γ/ml of nutrient medium, for Trichophyton mentagrophvtes. How it is done:
as §1, §2, §3

Another experiment deals with Histoplasma. Briefly: microbe, parasite or virus in culture. The experiment is classed as cell-based. The settings on record: read-out: MIC values in γ/ml of nutrient medium, for Histoplasma.
Another experiment relates to Candida albicans. Description: Antimycotic activity in vitro, series dilution test (MIC). The format is cell-based. The settings on record: read-out: MIC values in γ/ml of nutrient medium, for Candida albicans. How it is done: as §1
(b) for yeasts: meat extract-glucose bouillon,
as §3

The next experiment concerns Streptococcus pyogenes W. Briefly: Antibacterial activity in vitro, plast test (MIC). The experiment is classed as cell-based. To be noted: agar plate, 5 × 10^3 /plate, pH 7.4; in µg/mL. On the procedure: (§4) The in vitro tests were carried out by the plast test. In this, the bacteria were cast with the agar, at a concentration of 5 × 10^3 /plate. […]
Experiment [2] concerns Staphylococcus aureus 133. Briefly: Antibacterial activity in vitro, plast test (MIC). The format is cell-based. The settings on record: agar plate, 5 × 10^3 /plate, pH 7.4. On the procedure:
as §4

A further experiment deals with Proteus vulgaris 1017. Briefly: Antibacterial activity in vitro, plast test (MIC). The experiment is classed as cell-based. The settings on record: agar plate, 5 × 10^3 /plate, pH 7.4. How it is done: as §4
A further experiment concerns Pseudomonas aerug. B. Description: Antibacterial activity in vitro, plast test (MIC). The format is cell-based. The settings on record: agar plate, 5 × 10^3 /plate, pH 7.4. How it is done: as §4
The subject of a further experiment is Klebsiella 8085. Briefly: Antibacterial activity in vitro, plast test (MIC). The format is cell-based. To be noted: agar plate, 5 × 10^3 /plate, pH 7.4. How it is done: as §4
A further experiment relates to fungi. To be noted: Belgian Pat. No. 720,801; cited from earlier work.
For the next experiment, the system named is E-Coli A 261. Description: Antibacterial activity in vitro, plast test (MIC). The format is cell-based. To be noted: agar plate, 5 × 10^3 /plate, pH 7.4. On the procedure:
as §4

The subject of a further experiment is bacteria. Description: Antibacterial activity (general statement). The experiment is classed as cell-based.
[3] abbreviates: 28° C., 24-96 hours, Sabouraud's milieu d'epreuve, 5 × 10^4 germs/ml.
Where [4] appears, read: 28° C., 24-96 hours, meat extract-glucose bouillon, 5 × 10^4 germs/ml.

Each structure is given as a SMILES string. Converted amounts (≈) assume the structure as drawn. Read-outs that look alike come from different tables or passages of the source.

In the case of `Clc1ccccc1C(c1ccc(Oc2ccccc2)cc1)n1ccnc1` (centres unmarked), the MIC in the experiment on Pityrosporum ovale was 1 µg/mL (≈ 2.77 µM); in the experiment on penicillium it was < 0.1 µg/mL; with Aspergillus fumigatus (setting [3]), < 0.1 µg/mL; in [1], 16 µg/mL (≈ 44.3 µM); in the experiment with Histoplasma it was 2 µg/mL (≈ 5.54 µM); in the experiment on Candida albicans (setting [4]), 8 µg/mL (≈ 22.2 µM).
As to `Clc1ccc(C(c2ccc(-c3ccccc3)cc2)n2ccnc2)cc1` (centres unmarked), the “MIC values for Streptococcus pyogenes W” value against Streptococcus pyogenes W is 10. This molecule also gave an MIC values for Staphylococcus aureus 133 in experiment [2] of 8 µg/mL.
In turn, `CC(C)(C)c1ccc(C(c2ccc(-c3ccccc3)cc2)n2ccnc2)cc1` (centres unmarked) registered an MIC values for Proteus vulgaris 1017 against Proteus vulgaris 1017 of 128 µg/mL. Besides, the “MIC values for Streptococcus pyogenes W” value in the experiment on Streptococcus pyogenes W was 128. This molecule gave an MIC values for Staphylococcus aureus 133 in experiment [2] of 8 µg/mL. In addition, in the experiment with Pseudomonas aerug. B, the MIC values for Pseudomonas aerug. B was found to be 256 µg/mL. In the experiment with Klebsiella 8085, the MIC values for Klebsiella 8085 turned out to be 128 µg/mL.
Take `Clc1ccccc1C(c1ccccc1)(c1ccccc1)n1ccnc1` [clotrimazol, bisphenyl-(2-chlorophenyl)-imidazol-1-ylmethane]: the antimycotic action entry in the experiment on fungi was “good antimycotic action”.
As to `c1ccc(-c2ccc(C(c3ccccc3)n3ccnc3)cc2)cc1` (centres unmarked) [drawing 9], the MIC is 1 µg/mL (≈ 3.22 µM) in the experiment on Pityrosporum ovale; < 0.1 µg/mL in the experiment with penicillium; < 0.1 µg/mL in the experiment on Aspergillus fumigatus; < 1 µg/mL in experiment [1]; 4 µg/mL (≈ 12.9 µM) with Histoplasma; 4 µg/mL (≈ 12.9 µM) with Candida albicans.
As for `Clc1ccccc1C(c1ccc(-c2ccccc2)cc1)n1ccnc1` (centres unmarked) [drawing 10], the MIC in the experiment with Pityrosporum ovale was 1 µg/mL (≈ 2.9 µM); in the experiment on penicillium, < 0.1 µg/mL; with Aspergillus fumigatus (setting [3]), < 0.1 µg/mL; in experiment [1], < 1 µg/mL; in the experiment on Histoplasma it was 4 µg/mL (≈ 11.6 µM); in the experiment on Candida albicans (setting [4]), 2 µg/mL (≈ 5.8 µM).
With `Clc1cccc(C(c2ccc(-c3ccccc3)cc2)n2ccnc2)c1` (centres unmarked) [drawing 11], the MIC is 1 µg/mL (≈ 2.9 µM) with Pityrosporum ovale; < 0.1 µg/mL in the experiment with penicillium; < 0.1 µg/mL in the experiment with Aspergillus fumigatus (setting [3]); 2 µg/mL (≈ 5.8 µM) in experiment [1]; 2 µg/mL (≈ 5.8 µM) in the experiment on Histoplasma; 1 µg/mL (≈ 2.9 µM) in the experiment on Candida albicans (setting [4]).
Consider `c1ccc(-c2ccc(C(c3ccccc3)n3ccnc3)cc2)cc1` (centres unmarked) [drawing 13], for which the MIC values for Proteus vulgaris 1017 with Proteus vulgaris 1017 is 128 µg/mL. The “MIC values for Streptococcus pyogenes W” value against Streptococcus pyogenes W is 10-20. In [2], this molecule returned an MIC values for Staphylococcus aureus 133 of 8 µg/mL. The MIC values for Klebsiella 8085 in the experiment on Klebsiella 8085 worked out at 128 µg/mL.
Regarding `Clc1ccccc1C(c1ccc(-c2ccccc2)cc1)n1ccnc1` (centres unmarked) [drawing 14], the MIC values for Proteus vulgaris 1017 against Proteus vulgaris 1017 was 128 µg/mL. Moreover, the MIC values for E-Coli A 261 with E-Coli A 261 was found to be 256 µg/mL. Further, in the experiment on Streptococcus pyogenes W, the “MIC values for Streptococcus pyogenes W” value was 128. Further, in experiment [2], the MIC values for Staphylococcus aureus 133 is 8 µg/mL. In addition, the MIC values for Pseudomonas aerug. B in the experiment on Pseudomonas aerug. B came to 256 µg/mL. Besides, the MIC values for Klebsiella 8085 in the experiment on Klebsiella 8085 is 128 µg/mL.
Regarding `Clc1cccc(C(c2ccc(-c3ccccc3)cc2)n2ccnc2)c1` (centres unmarked) [drawing 16], the “MIC values for Streptococcus pyogenes W” value against Streptococcus pyogenes W stood at 128. This molecule also returned an MIC values for Staphylococcus aureus 133 in [2] of 8 µg/mL.
Consider `COC1=CC(=O)C[C@@H](C)[C@]12Oc1c(Cl)c(OC)cc(OC)c1C2=O` [griseofulvin], for which the antibacterial activity result in the experiment on bacteria is “not present”.
Same read-out and setting: the value for `C[C@@H]1[C@H](O)[C@@H](C)/C=C/C=C/CC/C=C/C=C/C=C/C=C/C(O[C@H]2O[C@H](C)[C@@H](O)[C@H](N)[C@@H]2O)CC2O[C@](O)(CC(O)C(O)CCC(O)CC(O)CC(O)CC(=O)O[C@H]1C)CC(O)C2C(=O)O` (some centres unmarked) [nystatin] was “not present”; that for `C[C@@H]1C/C=C/C=C/C=C/C=C/[C@H](O[C@@H]2O[C@H](C)[C@@H](O)[C@H](N)[C@@H]2O)C[C@@H]2O[C@](O)(C[C@@H](O)C[C@H]3O[C@@H]3/C=C/C(=O)O1)C[C@H](O)[C@H]2C(=O)O` [pimaricin] was “not present”.

Values taken from patent US4118487A, “Substituted azol-1-ylmethanes” (Bayer Aktiengesellschaft, priority 1974, dated 1978).
